Measurements taken from patent US20230220410A1, “PLANTS TOLERANT TO BROAD RANGE OF PATHOGENS” (RAMOT AT TEL-AVIV UNIVERSITY LTD., priority 2020, published 2023).
Entries after “also recorded” stand apart in the source; their conditions may differ. Like-named read-outs stand apart in the source and are kept apart here.

Tests used:
[1] = system: WT (Col-0) Arabidopsis; assay: Root elongation / root growth-rate inhibition on MS with the substance, wild type; format: in vivo, Arabidopsis thaliana
Text: (§1) The Arabidopsis strains used were all in the Columbia-0 (Col-0) background. The gain of function lines psx00478 and psx08098 containing pBIG2113SF binary vector, expressing a single cDNA under 35S promoter, were ordered from FOX library (Takanari I. et al., 2006. ibid). Transgenic lines were generated using pBINPLUS (van Engelen F A et al., 1995. Transgenic Research 4, 288-290), in which AT2G19750 gene was cloned downstream of the 35S promoter, and transformed to WT Col-0 via Agrobacterium cv3101 mediated transformation. The presence of the transgene was confirmed by PCR with specific primers for S30. Seeds were cultivated in Petri plates using medium containing 0.8% agar, half-strength Murashige and Skoog salts (MS), and 1% sucrose, pH 5.7. The Petri plates were placed in chambers at 22° C. under light/dark conditions of 16 h white light at 75 mol m^2 sec^−1 and 8 h darkness, at 55% relative humidity. For root phenotype experiments, plates were placed vertically in the chambers.
To calculate the percentage of growth inhibition, seeds were germinated on MS containing the following concentrations of I3C: 0, 50, 100, 200, 300, 400, 500 and 750 μM. The root length of the seedlings was measured at days 3, 4, 5, 7 and 10. To calculate the percentage of growth inhibition, the slope of the regression lines for each concentration was used in the next equation: […]
To calculate the degree of tolerance to I3C, growth rates of WT and the I3CT1 strains were determined for increasing concentrations of I3C. Root length was measured at several time points over increasing I3C concentrations (FIG. 3). The growth rate of the WT and the I3CT1 transgenic lines was similar on MS; however, a growth rate of 3 and 2.3 times faster was observed on 400 μM I3C for the transgenic lines I3CT1^2 and I3CT1^8098 respectively. […] However, the growth rate of the WT was inhibited by 50% at about 50 μM while the growth rate of the I3CT1^2 and I3CR1^8098 transgenic lines was inhibited by 50% only when the I3C concentration was 300 μM and 200 μM respectively.
(§2) To test if overexpression of S30 causes tolerance specifically to I3C, or rather causes general tolerance to external chemical stress, root growth was tested with the addition of three groups of molecules to the growth medium: two subcategories of indole derivates: 1. Breakdown products of indol-3-acetaldoxime such as I3C, indol-3-acetic acid (IAA), and 3—Indoleacetonitril (IAN); and 2. breakdown products of I3C such as 3, 3Diindolylmethane (DIM), indole-3-carboxaldehyde (I3xA), and methyl Indole 3-carboxylate (MI3Cx). The third group contains benzoxazinoids: 2-Benzoxazolinon (BOA) and 6-Methoxy-2-benzoxazolinone (mBOA). Benzoxanoids are chemically unrelated to I3C, but with similar function of plant defense in gramineae (FIG. 4A). WT and the I3CT1 transgenic strains were assayed for root growth on 50% and 90% inhibition concentrations (IC) of the above molecules (Table 3).

[2] = system: I3CT1 transgenic strains; assay: Root growth of I3CT1 on 50% and 90% inhibition concentrations of plant defense molecules; format: in vivo, Arabidopsis thaliana; settings: FIG. 4B
Protocol: FIG. 4A: Plant defense molecules assayed: Breakdown products of indol-3-acetaldoxime (upper left panel), Breakdown products of I3C (lower panel), and benzoxazinoids (right panel). FIG. 4B: I3CT1 and WT were grown on 50% and 90% inhibition concentrations of the chemicals shown in μM. Data represent mean±SE.
as §2

[3] = system: WT (Col-0) Arabidopsis; assay: Root length on I3C, IAA and mixtures (auxin antagonism), WT; format: in vivo, Arabidopsis thaliana
Protocol: I3CT1^2, I3CT1^8098 (FIG. 10A, designated as ICT1) and WT (FIG. 10B) plants were grown on three concentrations of I3C (50, 200, 500 μM), three concentrations of IAA (50, 200, 500 nM) and mixtures between the two. Root length was measured, and the mean root length of the transgenic lines I3CT1^2, I3CT1^8098 was calculated (presented as “I3CT1”). Three-way ANOVA was performed after SQRT transformation to obtain a normal distribution. FIG. 10C: The model of inhibition.
It was previously shown that I3C acts as an auxin antagonist on TIR1 (Katz et al., 2015b, ibid).

[4] = system: I3CT1^8098 transgenic line (S30 overexpressing); assay: Root growth-rate inhibition by I3C, transgenic line I3CT1^8098; format: in vivo, Arabidopsis thaliana; settings: I3CT1^8098 (printed I3CR1^8098)
Text: as §1, with “For root phenotype experiments, plates were placed vertically in the chambers.” left out
(§3) To calculate the percentage of growth inhibition, seeds were germinated on MS containing the following concentrations of I3C: 0, 50, 100, 200, 300, 400, 500 and 750 μM. The root length of the seedlings was measured at days 3, 4, 5, 7 and 10. […]
(§4) To calculate the degree of tolerance to I3C, growth rates of WT and the I3CT1 strains were determined for increasing concentrations of I3C. Root length was measured at several time points over increasing I3C concentrations (FIG. 3). […]

[5] = system: WT (Col-0) Arabidopsis; settings: 400 μM I3C; cited from earlier work
[6] = system: I3CT1^2 transgenic line (S30 overexpressing); assay: Root growth-rate inhibition by I3C, transgenic line I3CT1^2; format: in vivo, Arabidopsis thaliana; settings: I3CT1^2, root growth rate
Text: as §1, with “For root phenotype experiments, plates were placed vertically in the chambers.” left out
as §3, §4

[7] = Arabidopsis thaliana, root elongation, Table 3, read-out: substance concentration inhibiting root elongation by 50%
[8] = root elongation, Table 3, read-out: substance concentration inhibiting root elongation by 50%
[9] = read-out: I3C concentration at which growth rate was inhibited by 50%

Compound	IC50 [1, 7]	substance concentration inhibiting root elongation by 90% ([1]; root elongation, Table 3)	tolerance of I3CT1 to the chemical (root growth) [2]	IC50 [1, 8]	further results
O=C(O)Cc1c[nH]c2ccccc12 [IAA, Indole-3-acetic acid]	50 µM	200 µM	tolerance of the I3CT1 line was limited to three chemicals; also recorded: slight tolerance	–	–
COC(=O)c1c[nH]c2ccccc12 [MI3Cx, Methyl Indole 3-Carboxylate]	200 µM	375 µM	did not exhibit any pronounced tolerance	–	–
O=Cc1c[nH]c2ccccc12 [I3xA, Indole 3-Carboxalldehyde]	–	300 µM	did not exhibit any pronounced tolerance	140 µM	–
OCc1c[nH]c2ccccc12 [I3C, Indole 3-carbinol]	–	400 µM	tolerance of the I3CT1 line was limited to three chemicals	100 µM	inhibition of root elongation by I3C itself ([3]; 500 μM I3C): 95%; rescue of IAA root-elongation inhibition by I3C ([3]; 50 and 200 μM I3C added to IAA, WT): rescues the IAA phenotype; I3C concentration of 90% inhibition ([1]; WT, root growth rate): 400 µM; IC50 ([1]; WT, root growth rate, read-out: I3C concentration at which growth rate was inhibited by 50%): ~50 µM; I3C concentration of maximum inhibition ([1]; all strains (WT and I3CT1 lines)): 750 µM; I3C concentration of 90% inhibition [4]: 500 µM; IC50 [4, 9]: 200 µM; inhibition of root elongation [5]: 95%; I3C concentration of 90% inhibition [6]: 750 µM; IC50 [6, 9]: 300 µM
O=c1[nH]c2ccccc2o1 [BOA, 2-Benzoxazolinon]	–	400 µM	–	–	IC50 ([1]; Arabidopsis thaliana, read-out: substance concentration inhibiting root elongation by 50%): 50 µM
N#CCc1c[nH]c2ccccc12 [IAN, Indole 3-acetonitril]	–	160 µM	did not exhibit any pronounced tolerance	50 µM	–
c1ccc2c(Cc3c[nH]c4ccccc34)c[nH]c2c1 [DIM, 3,3′-Diindolylmethane]	60 µM	200 µM	tolerance of the I3CT1 line was limited to three chemicals	–	–
COc1ccc2[nH]c(=O)oc2c1 [mBOA, 6-Methoxy-2-benzoxazolinone]	50 µM	400 µM	–	–	–
